One assay addresses T1, RAMP3-CLR (AM2 receptor) (Homo sapiens, UniProt O60896+Q16602).
T1 construct: FLAG; expressed in transfected cells; host or cells: HEK-293 or HEK-293S cells, transient transfection, 1:1 RAMP:CLR
The assay is described as follows: (Ca^2+)i mobilization, HEK-293 cells, RAMP3 + CLR. The assay is classed as cell-based. The following applies: HEK293, percentage of maximal (Ca^2+)i release with 10 μM ionomycin, mean ± S.E., n = 5. As to the method:
HEK-293 cells, provided by Dr. Jügen Müller (University of Aston), were cultured in DMEM supplemented with 10% heat-inactivated FBS and kept at 37 °C in a humidified 95% air, 5% CO2 incubator. HEK-293S cells (a gift from AstraZeneca) were cultured in DMEM supplemented with 8% heat-inactivated FBS and kept at 37 °C in a humidified 95% air, 5% CO2 incubator. HEK-293 cells were transfected with FuGENE 6 (Roche Applied Science) in accordance with the manufacturer's instructions using a 1:3 (w:v) DNA:FuGENE ratio and a 1:1 ratio of RAMP to CLR. HEK-293S cells were seeded into 96-well poly-D-lysine-coated plates at a density of 15,000 cells/well (determined using a Countess^TM cell counter, Invitrogen) 1 day prior to transfection. HEK-293S cells were transiently transfected as described previously ([38]) using a 1:1 ratio of RAMP to CLR. The transfected cell lines were grown for 24–48 h prior to assaying.
Transfected HEK-293 cells were grown to confluence in black, clear bottomed, 96-well plates. […] Ligands were added robotically using a Mithras LB 940 multimode microplate reader in the range of 10 pM to 1 μM, and fluorescence was determined immediately post-injection with an excitation wavelength set to 485 nm and an emission wavelength set to 535 nm. […] Peak magnitude was calculated using five-point smoothing followed by correction against background fluorescence. […]

The target of assay [1] is T2, RAMP1-CLR (CGRP receptor) (Homo sapiens, UniProt O60894+Q16602).
T2 construct: FLAG; expressed in transfected cells; host or cells: HEK-293 or HEK-293S cells, transient transfection, 1:1 RAMP:CLR
T2 sequence (Q16602 23-461): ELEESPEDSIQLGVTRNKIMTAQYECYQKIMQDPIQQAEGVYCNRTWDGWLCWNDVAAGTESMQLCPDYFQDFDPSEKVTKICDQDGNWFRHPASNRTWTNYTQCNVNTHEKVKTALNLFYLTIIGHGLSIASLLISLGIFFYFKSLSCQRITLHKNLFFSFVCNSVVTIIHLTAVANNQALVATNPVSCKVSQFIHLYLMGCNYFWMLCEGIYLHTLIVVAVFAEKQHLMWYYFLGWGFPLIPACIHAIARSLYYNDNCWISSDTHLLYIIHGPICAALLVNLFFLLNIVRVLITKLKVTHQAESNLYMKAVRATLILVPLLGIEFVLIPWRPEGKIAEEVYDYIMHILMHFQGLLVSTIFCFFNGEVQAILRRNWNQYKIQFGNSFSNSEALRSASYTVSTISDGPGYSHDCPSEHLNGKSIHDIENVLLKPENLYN
T2 sequence (O60894 27-148): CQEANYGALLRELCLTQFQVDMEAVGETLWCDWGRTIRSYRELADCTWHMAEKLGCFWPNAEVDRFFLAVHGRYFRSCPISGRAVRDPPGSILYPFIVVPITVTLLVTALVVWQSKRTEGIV
The assay is described as follows: (Ca^2+)i mobilization, HEK-293 cells, RAMP1 + CLR. Particulars: HEK293, percentage of maximal (Ca^2+)i release with 10 μM ionomycin, mean ± S.E., n = 5. The assay is classed as cell-based. How it is done:
HEK-293 cells were transfected with FuGENE 6 (Roche Applied Science) in accordance with the manufacturer's instructions using a 1:3 (w:v) DNA:FuGENE ratio and a 1:1 ratio of RAMP to CLR. […] The transfected cell lines were grown for 24–48 h prior to assaying.
Transfected HEK-293 cells were grown to confluence in black, clear bottomed, 96-well plates. […] Cells were then washed followed by the addition of 100 μl of Ca^2+-free Hanks' balanced salt solution. […] Recordings were obtained every 0.5 s for 120 s. Peak magnitude was calculated using five-point smoothing followed by correction against background fluorescence. The peak was used to generate concentration-response curves and normalized relative to 10 μM ionomycin.
Data analysis for cAMP assays was performed in GraphPad Prism 6.0f (San Diego, CA). […] These values were then used to quantify signaling bias as change in log (τ/Ka) relative to the natural cognate ligand for the respective receptor ([41]). […] Statistical differences were analyzed using one-way ANOVA or Student's t test as appropriate with post hoc Bonferroni's or Dunnett's multiple comparisons, and p < 0.05 was considered significant. […] To quantitate the ligand-dependent response in the yeast system, a strain lacking GPA1 (MMY11), grown in rich medium, was used as a standard ([72]). […]

Structures are written as SMILES.

As usually defined, the Emax is the maximal effect, on the per cent scale that the assay sets.

T1 sequence (Q16602 23-461): as the sequence (Q16602 23-461) above
T1 sequence (O60896 24-148): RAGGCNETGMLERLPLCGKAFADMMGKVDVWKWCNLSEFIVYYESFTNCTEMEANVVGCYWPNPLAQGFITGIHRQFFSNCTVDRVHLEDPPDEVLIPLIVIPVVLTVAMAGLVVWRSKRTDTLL

With `CC[C@H](C)[C@H](NC(=O)[C@H](CCC(N)=O)NC(=O)[C@H](Cc1c[nH]cn1)NC(=O)[C@H](C)NC(=O)[C@H](CC(C)C)NC(=O)[C@H](CCCCN)NC(=O)[C@H](CCC(N)=O)NC(=O)[C@@H](NC(=O)[C@@H](NC(=O)[C@@H]1CSSC[C@H](NC(=O)CNC(=O)[C@H](Cc2ccccc2)NC(=O)[C@H](CO)NC(=O)[C@H](CCCNC(=N)N)NC(=O)[C@H](CC(C)C)NC(=O)CNC(=O)[C@H](CCC(N)=O)NC(=O)[C@H](Cc2ccccc2)NC(=O)[C@H](CC(N)=O)NC(=O)[C@H](CC(N)=O)NC(=O)[C@H](CCSC)NC(=O)[C@H](CO)NC(=O)[C@H](CCC(N)=O)NC(=O)[C@H](CCCNC(=N)N)NC(=O)[C@@H](N)Cc2ccc(O)cc2)C(=O)N[C@@H](CCCNC(=N)N)C(=O)N[C@@H](Cc2ccccc2)C(=O)NCC(=O)N[C@@H]([C@@H](C)O)C(=O)N1)[C@@H](C)O)C(C)C)C(=O)N[C@@H](Cc1ccc(O)cc1)C(=O)N[C@@H](CCC(N)=O)C(=O)N[C@@H](Cc1ccccc1)C(=O)N[C@H](C(=O)N[C@@H](CC(=O)O)C(=O)N[C@@H](CCCCN)C(=O)N[C@@H](CC(=O)O)C(=O)N[C@@H](CCCCN)C(=O)N[C@@H](CC(=O)O)C(=O)N[C@@H](CC(N)=O)C(=O)N[C@H](C(=O)N[C@@H](C)C(=O)N1CCC[C@H]1C(=O)N[C@@H](CCCNC(=N)N)C(=O)N[C@@H](CO)C(=O)N[C@@H](CCCCN)C(=O)N[C@H](C(=O)N[C@@H](CO)C(=O)N1CCC[C@H]1C(=O)N[C@@H](CCC(N)=O)C(=O)NCC(=O)N[C@@H](Cc1ccc(O)cc1)C(N)=O)[C@@H](C)CC)C(C)C)[C@@H](C)O` [AM, adrenomedullin], the Emax at RAMP3-CLR (AM2 receptor) worked out at 56.7 ± 6.6%; in assay [1], 37 ± 3.5%.

For the origin of these results see publication PMC5063977 (The Journal of Biological Chemistry, 2016).
